From patent US20040034049A1, “Promoters for the proliferation and differentiation of stem cells and/or neuron precursor cells” (priority 2003, published 2004)

Tested on: rat mixed glia culture
Assay: Neural neogenesis promoting effect in rat mixed glia culture (differentiation assay, β III tubulin positive cell count)
Settings: 120 h, 1 μM compound, 5 days differentiation, β III tubulin positive cells, % activity based on non-treatment control, read-out: Differentiation or neogenesis promoting activity (%)
From the text: Neural Neogenesis Promoting Effect in Rat Mixture Glia Culture
A neonatal SD rat was purchased from Charles River Japan, Inc. A nylon cell strainer with 40 micron in diameter was purchased from Becton Dickinson. DMEM/F12 Medium, antibiotics, N2 additives were purchased from LIFE TECHNOLOGY. Anti-β III-tubulin antibody was purchased from Sigma. DAKO EnVision+/HRP kit was purchased from DAKO Japan. Other reagents were commercial products of analytical grade.
A rat mixed glia culture was made from a hippocampus of a neonatal SD rat of 2 days old. The neonate was anesthetized by ice-cooling, sacrificed by decapitation and the brain was taken out immediately. The meninx was removed carefully, and the […] was separated. The hippocampus was pulverized mechanically by passing through a nylon cell strainer with 40 micron in diameter. The cell dispersion was overlaid on serum, and the cells were fractionated by a non-continuous gradient centrifugation. The pellet was washed twice with a growth medium (DMEM/F12 supplemented with 10% FBS and antibiotics) and then dispersed. The mixed glia culture was inoculated onto a collagen-coated 96-well multiplate at the density of 1×10^5 cells per well, and incubated for 5 days.
After incubating for 5 days, the mixed glia culture was subjected to a differentiation assay. The growth medium was replaced with a serum-free medium (DMEM/F12 supplemented with N2 additives and antibiotics) and the test compound was added simultaneously. After allowing to undergo the differentiation for 5 days followed by fixation with 4% p-formaldehyde, a mouse anti-β III tubulin monoclonal antibody and DAKO EnVision+/HRP kit was used to effect an immunostaining.
The β III tubulin positive cells were counted, and the data in the presence (1 μM) of the Compound (I) and the absence (control) were compared.

SMILES | activity at 1 µM
COc1cc2c(cc1OC)CN(c1c(C)c(C)c3c(c1C)[C@@H](c1ccc(C)cc1)C(C)(C)O3)C2 [Example 17a, (R)-5,6-dimethoxy-2-[2,2,4,6,7-pentamethyl-3-(4-methylphenyl)-2,3-dihydro-1-benzofuran-5-yl]isoindoline] | 344%
COc1cc2c(cc1OC)CN(c1c(C)c(C)c3c(c1C)C(c1ccc(C(C)C)cc1)C(C)(C)O3)C2 (stereo not drawn) [Example 11a, 5,6-dimethoxy-2-[3-(4-isopropylphenyl)-2,2,4,6,7-pentamethyl-2,3-dihydro-1-benzofuran-5-yl]isoindoline] | 478%
Cc1c(C)c2c(c(C)c1NCc1ccc(F)cc1)C(c1ccc(C(C)C)cc1)C(C)(C)O2 (stereo not drawn) [Example 19b, N-(4-fluorobenzyl)-3-(4-isopropylphenyl)-2,2,4,6,7-pentamethyl-2,3-dihydro-1-benzofuran-5-amine] | 468%
